Consider two compounds from patent US20210046002A1, “AMELIORATION OF AUTOIMMUNE UVEITIS THROUGH BLOCKADE OF CSF1R” (Massachusetts Eye and Ear Infirmary, priority 2018, published 2021).

“Also recorded” adds a separate entry of the source.

In series [1] the test system is EAU. The experiment in a line: EAU in Cx3cr1CreER x B6-iDTR mice given tamoxifen alone. The series is classed as in vivo. Particulars: day 21; for clinical EAU score: tamoxifen alone, systemically via i.p. injection.
The test system of series [2] is EAU. Briefly: Active immunization EAU, clinical and histopathological score. The series is classed as in vivo, C57BL/6 mice.
The test system of the next series is retinal microglia. The experiment in a line: Retinal microglia depletion by chow containing CSF1R inhibitor. Type of series: in vivo. As to conditions: inhibitor-treated mice. The text has this: The images of whole mount retinas were taken by a confocal microscopy (SP5 or SP8; Leica, Buffalo Grove, Ill., USA) or an epifluorescent microscopy (Axio Observer Z1; Carl Zeiss, Bayern, Germany). For microglial cell number counting, microglial cell bodies were manually counted based on the z-stack images. For microglial density evaluation, maximum intensity z-stack images were created and the images were processed with the smooth, the make binary, and the watershed tools. The area of particles was then calculated using the analyze particles tool, setting the size range to 5-1000. Amira 5 software (FEI, Hillsboro, Oreg., USA) was used to make 3D-reconstruction images.
Microglia depletion was performed using Cx3cr1^CreER×B6-iDTR (TG) mice or chow containing a small molecule CSFR1 inhibitor (Plexxikon Inc, Berkely, Calif., USA). To generate TG mice, Cx3cr1^CreER mice, which express Cre-ER fusion protein from endogenous CX3CR1 promoter enhance elements, were crossed with B6-iDTR mice, which contain a flox-STOP-flox diphtheria toxin receptor (DTR) in the ROSA26 locus. In this TG mice system, the Cre recombinase activation under the control of the Cx3cr1 promoter can be induced by tamoxifen, which leads to the surface expression of DTR on CX3CR1-expressing cells. […]

The subject of another series is IRBP-p. The experiment in a line: Delayed hypersensitivity (ear swelling) against IRBP-p. The series is classed as in vivo, C57BL/6 mice. As to conditions: IRBP-immunized animals, day 21. The procedure:
Ag-specific delayed hypersensitivity (DH) was measure as previously described. On day 19 after immunization, mice were injected intradermally with 10 μg/10 μl of IRBP-p suspended in PBS into the pinna of one ear. Ear swelling was measured after 24 and 48 h using a micrometer (Mitutoyo, Tokyo, Japan). DH was measured as the difference in ear thickness before and after challenge. Results were expressed as: specific ear swelling=(24-h measurement−0-h measurement) for test ear−(24-h measurement−0-h measurement) for control ear.

Series [3] relates to lymph node and spleen cells. Briefly: Lymphocyte proliferation assay (modified MTT) of lymph node and spleen cells. Type of series: cell-based, C57BL/6 mice. Particulars: IRBP-immunized animals, lymph nodes and spleens, day 14 and 21. The procedure: The draining LN and spleens were collected and the cells were suspended at 2×10^5 per 200 μL medium in 96-well flat-bottom plates. Triplicated cells were cultured in the presence of 10 μg/mL IRBP-p, 1 μg/mL Concanavalin A (Con A; Sigma-Aldrich), or medium alone. After incubation for three days, 100 μl of supernatant in the culture medium was collected. Cell proliferation during the last 4 hours of 72 hours cultures was measured by modified MTT assay using Cell Counting Kit-8 (Sigma-Aldrich).

Series [4] can be described thus: Lymph node and spleen weight in EAU. Particulars: day 21. Type of series: in vivo, C57BL/6 mice.
For another series, the system named is LN cells and SP cells. Briefly: Flow cytometric analysis of lymph nodes and spleens. The series is classed as in vivo, mice. The source says: Cervical, axillary, and inguinal lymph nodes (LNs) were harvested from naive mice and EAU mice fed with a small molecule CSFR1 inhibitor or control diet. Single cell suspensions (1×10^6 cells/sample) were blocked with anti-mouse CD16/32 mAb (eBioscience, San Diego, Calif.) and stained with cell surface antibodies. Dead cells were stained with LIVE/DEAD™ fixable dead cell stain kit (blue or violet) (ThermoFisher). The following anti-mouse antibodies were used for staining: CD4-FITC (clone: GK1.5), CD25-PE (PC61.5), Foxp3-PE-Cy7 (FJK-6s), CD11c-FITC (N418), CD11b-PE (M1/70), CD45-APC (30-F11), IFN-γ-PE (XMG1.2), and IL-17A-APC (eBio17B7) (All purchased from eBioscience). CD3-Pacific blue (17A2) was purchase from BioLegend (San Diego, Calif.). For CD45/CD11b/CD11c detection, the cells were subjected for analysis without fixation. For regulatory T cell (CD3/CD4/CD25/Foxp3) staining, after staining with the cell surface markers, the cells were fixed and permeabilized with the Foxp3 staining buffer kit (eBioscience) and stained with Foxp3-PE-Cy7. For Th1 and Th17 detection (CD3/CD4/IFN-γ/IL-17), single cell suspensions were stimulated for 4 hours with 50 ng/mL phorbal myristate acetate (PMA) and 500 ng/ml ionomysin in culture media (10% FBS, RPMI1640, penicillin, streptomycin, β-mercaptoethanol) in the presence of GolgiPlug™ (BD Biosciences). The cells were stained with CD3-PB, CD4-FITC, and Live/Dead blue then fixed and permeabilized using an intracellular fixation and permeabilization buffer set (eBioscience). The cells were next stained with IFN-γ-PE and IL-17-APC. Flow cytometric data were acquired on a LSR II (BD Biosciences). Acquired data was analyzed using FlowJo 10.1 ( ).

For series [5], the system named is EAU. Briefly: Adoptive transfer EAU. The series is classed as in vivo, mice. The procedure:
Adoptive transfer EAU was induced as previously described with brief modification. Briefly, donor mice were immunized as described above and the spleens and draining lymph nodes (LNs) were collected on day 14 post-immunization. Lymphocytes from spleens and draining LNs were culture in the presence of 10 μg/ml IRBP-p and 10 ng/ml IL-23 (R&D systems, Minneapolis, Minn.) for 72 hours in RPMI 1640 supplemented with 10% FBS (Gibco), 2 mM glutamine (Gibco), and 100 U/ml penicillin and 100 μg/ml streptomycin. The non-adherent cells in the entire suspension were transferred to new dishes on day one and two of culture. After 3 days, the activated lymphocytes were purified by gradient centrifugation on Histopaque 1083 and counted. The cells were injected i.p. in 0.2 ml of PBS into […] (5×10^7 cells/mouse). Fundus were observed using Micron IV (Phoenix, Pleasanton, Calif.) and clinical score was graded on a scale between 0-4 in half-point increments as described previously. For histological assessment, enucleated eyes were fixed in a buffer of 70% methanol and 30% acetic acid. The fixed tissues were embedded in paraffin and processed. Sections of 5 μm were cut and stained with H&E. The severity of EAU in each eye was scored on a scale between 0-4 in half-point increments, according to a semiquantitative system described previously.

The test system of series [6] is adherent retinal leukocytes. The experiment in a line: Lectin labeling of adherent retinal leukocytes. Type of series: in vivo, mice. As to conditions: EAU day 10. As for the experimental part:
The retinal vasculature and adherent leukocytes were imaged by perfusion labeling with fluorescein-isothiocyanate (FITC)-conjugated concanavalin A lectin (conA; Vector Laboratories, Burlingame, Calif.), as described previously with modifications. Briefly, after deep anesthesia, the chest cavity was opened and a 27-gauge cannula was introduced into the left ventricle. The mice were perfused through the left ventricle first using 5 ml of PBS, followed by fixation with 1% paraformaldehyde (5 ml), FITC-conjugated conA (20 μg/ml in PBS, 5 mL), and 5 ml of PBS. The eyes were then fixed in 4% PFA for 15 mins and the retinas were flatmounted. The total number of conA stained adherent leukocytes in the major retinal vessels (venules, arterioles, and collecting vessels) were counted under the direct observation with an epifluorescent microscopy (Axio Observer Z1; Carl Zeiss, Bayern, Germany).

For the next series, the system named is ICAM-1. The experiment in a line: Western blot of retinal ICAM-1. Particulars: EAU day 10; P<0.01. The series is classed as in vivo, mice. As for the experimental part:
(§1) Whole retinas were homogenized with a hand homogenizer and briefly sonicated in M-PER® Mammalian Protein Extract Reagent containing Halt Phosphatase Inhibitor Cocktail (both Thermo Scientific), and then ultracentifuged for 15 min at 17,000 g to collect soluble proteins as supernatants. 20 μg of the samples were electrophoresed through 4-15% polyacrylamide gels (Bio-Rad, Hercules, Calif., USA), and transferred onto PVDF membranes. After blocking with 5% nonfat dried milk, the membranes were incubated overnight with a primary antibody at 4° C. The membranes were then incubated for 1 hour at room temperature with a HRP-labeled secondary antibody. The following antibodies were used: rabbit anti-ICAM1 (179707, abcam), rabbit anti-VCAM1 (134047, abcam), and rabbit anti-β-actin (4970; Cell Signaling Technology). Immunoreactive bands were visualized by ECL. The images were taken by ChemiDoc MP (Bio-Rad) and analyzed using Image Lab 4.6 (Bio-Rad).

For the next series, the system named is VCAM-1. The experiment in a line: Western blot of retinal VCAM-1. Particulars: EAU day 14. Type of series: in vivo, mice. As for the experimental part: as §1
A short description of series [7]: Behavior and health observation on supplemented diet. Type of series: in vivo, mice. As to conditions: chow containing 1200 p.p.m. As for the experimental part: Microglia depletion was performed using Cx3cr1^CreER×B6-iDTR (TG) mice or chow containing a small molecule CSFR1 inhibitor (Plexxikon Inc, Berkely, Calif., USA). To generate TG mice, Cx3cr1^CreER mice, which express Cre-ER fusion protein from endogenous CX3CR1 promoter enhance elements, were crossed with B6-iDTR mice, which contain a flox-STOP-flox diphtheria toxin receptor (DTR) in the ROSA26 locus. In this TG mice system, the Cre recombinase activation under the control of the Cx3cr1 promoter can be induced by tamoxifen, which leads to the surface expression of DTR on CX3CR1-expressing cells. The activation of Cre recombinase was induced by 5 consecutive days of tamoxifen administration via eye drops (10 μl/drop of 5 mg/ml in corn oil) three times a day at 6 weeks old. Then diphtheria toxin (DTX) (Sigma-Aldrich) was administered into the anterior chamber (a.c.) (25 ng in 1 μl of saline) to deplete CX3CR1-expressing. The control mice were given saline (a.c.). For microglia depletion using a small molecule CSFR1 inhibitor, mice were fed the control chow (AIN-76) or the chow containing 1200 p.p.m of the CSF1R inhibitor PLX 5622 one week prior to RD creation.

The subject of series [8] is circulating systemic immune cells. Particulars: previous studies [31, 32]; cited from earlier work.

`CC/C(=C(\c1ccccc1)c1ccc(OCCN(C)C)cc1)c1ccccc1` [tamoxifen]: the “clinical EAU score” value in the series with EAU [1] is reported as “significantly suppressed”; with EAU [1] (listed as Tamoxifen), “suppresses EAU”. Besides, the “EAU severity (clinical EAU score)” value in the series with EAU [1] (tamoxifen topical via eye drops) is reported as “did not significantly affect”.
In the case of `COc1ncc(F)cc1CNc1ccc(Cc2c[nH]c3ncc(C)cc23)c(F)n1` [a small molecule CSFR1 inhibitor], the “clinical EAU score (development of EAU)” value in the series with EAU [2] (diet 1200 ppm started day -7, through day 21, p<0.001) was “suppresses EAU; also recorded: completely suppressed”. Moreover, the “clinical EAU score” value with EAU [2] (diet started day 0, until 28 days after EAU induction) is “effectively suppressed”. The “clinical EAU score” value with EAU [2] (diet started day 7) is “partially suppressed”. In the series with EAU [2] (diet started day 14), the “severity of EAU (clinical score)” value was “comparable to that of control mice”. Further, the “animals developing EAU” value in the series with EAU [2] (diet started day -7, by day 28, mild EAU, n=7) was “Only one animal”. In addition, the histological score entry with EAU [2] (diet started day -7, day 21, p<0.01) is on record as “suppressed EAU induction”. For the same compound, in the series on retinal microglia, the “degree of microglia depletion” value turned out to be 100%. For the same compound, the “delayed hypersensitivity (DH) response, ear swelling” value in the series with IRBP-p was “did not affect”. For the same compound, the lymphocyte proliferation result in series [3] is recorded as “did not affect”. Moreover, in series [4], the “lymph node (LN) weight” value was “does not change; also recorded: neither parameter was affected” and the spleen weight entry was “does not change; also recorded: neither parameter was affected”. In the series on LN cells and SP cells (LNs and spleens, day 14), the “frequency of CD3+CD4+ T cells positive for IFN-γ+ or IL-17+” value is “does not suppress; also recorded: did not significantly change” and the “frequency of regulatory T cells (CD4+CD25+Foxp3+)” value was “did not increase”. Further, the “CD11c+CD11b+ cells” value with LN cells and SP cells (both LNs and splenic cells, day 14 of EAU, vs control-fed) is recorded as “suppresses; also recorded: decreased”. Besides, the “severity of EAU in recipients (uveitogenicity of donor lymphocytes)” value with EAU [5] (inhibitor given to donor mice 7 days prior to EAU induction, recipients on regular diet) is recorded as “did not affect the severity of EAU; also recorded: does not significantly suppress”. The “EAU response (clinical and histopathological score)” value in the series with EAU [5] (inhibitor given to recipient mice 7 days prior to cell transfer) is “suppressed; also recorded: suppresses EAU”. In addition, in [6], the “levels of adherent cells vs naïve mice” value is recorded as “similar” and the “number of adherent cells vs control EAU mice” value was “significantly fewer”. For the same compound, the “retinal ICAM-1 protein expression vs naïve retina” value with ICAM-1 was “significantly higher”. Further, the “retinal VCAM-1 expression” value in the series with VCAM-1 was “unaffected”. In series [7], the “behavioral or health problems” value is recorded as “No obvious behavioral or health problems”. Further, in [8], the “effect on circulating systemic immune cells” value is reported as “minimal effect”.
